Test results from patent US20190314436A1, “PHARMACEUTICAL COMPOSITION FOR PREVENTION OR TREATMENT OF LIVER CANCER AND HEALTH FUNCTIONAL FOOD” (KOREA BIO MEDICAL SCIENCE INSTITUTE CO., LTD, priority 2016, published 2019).

Assays:
[1] = system: HCCLM3 hepatocellular carcinoma; test: Orthotopic HCC model, HCCLM3 via liver portal vein; format: in vivo, Balb/c nu/nu mouse; conditions: 30 mpk oral daily, 8 weeks
From the text: Establishment of Hepatocellular Carcinoma (HCC) in Small Animal Models
In order to induce HCC in a small animal model, a method of injecting chemicals such as DEN or a method of directly injecting HCC cells into the model is used. Although DEN treatment is convenient in view of experiment, this process entails a disadvantage in that a long period of time (about 50 weeks) is required for generation of tumors (‘tumorigenesis’). Therefore, in order to efficiently verify in vivo anticancer effects of natural extracts for a short period of time, an orthotopic implantation model of directly injecting HCC cells into the liver of a mouse was implemented.
The orthotopic implantation model is a method of inducing formation of cancer in liver tissues by directly injecting HCC cell lines such as Huh7 or HCCLM3 into hepatic portal vein or mesenchyma (liver lobe) of the mouse, and takes about 8 weeks to form tumors, which is considerably shorter than DEN, thus being properly used.
Efficacies of the Ulmi cortex extract (WSY-0), Nardostachys jatamansi extract (WSY-1), Lophatheri Herba extract (WSY-3) or Torilis Japonica extract (WSY-37) on HCC formation and suppression thereof have been validated through liver gross, H & E staining and serum analysis. […]

HCCLM3 cells = test: Cell death in hyper-metastatic HCC cell line; format: cell-based; conditions: HCCLM3, 16 μM, 48 hours
From the text: By treatment of HCCLM3 cells using WSY-1 or WSY-3 extract in ethanol to identify cell death effects, in vitro anti-cancer effects of the natural extracts on cell lines having different sorafenib sensitivities were investigated.

liver cancer = conditions: cited from earlier work
[2] = system: Hepa1-6 hepatocellular carcinoma; test: Orthotopic HCC model, Hepa1-6 via liver portal vein; format: in vivo, C57/BL6 mouse; conditions: WSY-1 100 mpk, sorafenib 30 mpk, oral daily
Method: In the present study, based on results of the primary in vivo efficacy validation experiment and preliminary experiment, the following experiment conditions were set up and the secondary validation experiment was implemented.
Administered cell/administration route: 5×10^5 Hepa1-6-GFP cells/liver portal vein
Dose/administration route/dosing frequency: WSY-1 100 mpk, sorafenib 30 mpk/oral administration/daily
5×10^5 Hepa1-6GFP cells were administered to the liver portal vein of each 6-week-old C57/BL6 mouse. 3 days later, the mice were randomly grouped, followed by administration of WSY-1 and sorafenib for 3 weeks.
During 3 weeks administration period, death (mortality) due to tumorigenesis was induced in the following experimental groups. After termination of the administration, survived mice were sacrificed and analyzed for anti-cancer effects.

Huh7 cells = test: MTT assay, liver cancer growth inhibition / cell death; format: cell-based; conditions: 48 hours
Method: Hepatoma cell proliferation inhibitory efficacies of the Ulmi cortex extract (WSY-0), Nardostachys jatamansi extract (WSY-1), Lophatheri Herba extract (WSY-3) and Torilis japonica extract (WSY-37) in target cells or mice treated with the same were validated by MTT assay and effective concentrations thereof were determined.
In vitro liver cancer growth inhibitory abilities of four (4) natural products (WSY-0, WSY-1, WSY-3, and WSY-37) were verified by the MTT assay.
With respect to the 4 types of natural products, total 8 types of extracts were prepared through hydrothermal extraction and ethanol extraction, respectively. These extracts were identified to have in vitro liver cancer growth inhibitory ability in 5 types of liver cancer cell lines (Huh7, HepG2, Hep3B, PLC/PRF5, and SK-hep1).
Further, in treatment using each of three ethanol extracts in an amount of 200 μg/mL except WSY-37, the cell growth inhibitory ability was identified in 4 types of liver cancer cell lines except Hep G2 cells.
When treating Huh7 cells with sorafenib for 48 hours, it was identified that about 60% cell death was induced with 2 μM of sorafenib and about 80% cell death was induced with 4 μM of sorefenib, respectively (see FIG. 1).

CNC(=O)c1cc(Oc2ccc(NC(=O)Nc3ccc(Cl)c(C(F)(F)F)c3)cc2)ccn1 [sorafenib]
liver weight/body weight vs mice with HCCLM3 only [1]: decreased
apoptotic effects (HCCLM3 cells): ≤ 50%
patients with partial response (liver cancer; 137 patients, Phase 2 clinical trials): ≤ 5%
extension of life compared to placebo dose group (liver cancer; orally administered): ~3 months
death (mortality) due to tumorigenesis ([2]; 3 weeks administration): 4 out of 13
liver weight/body weight vs mice injected with Hepa1-6 cells only ([2]; 3 weeks): significantly decreased
cell death (Huh7 cells; Huh7, 2 μM): about 60%
cell death (Huh7 cells; Huh7, 4 μM): about 80%
